Results taken from patent US8519149B2, “Tricyclic compounds as mPGES-1 inhibitors” (Glenmark Pharmaceuticals S.A., priority 2010, dated 2013).

Target: T1, Recombinant human mPGES-1 (Homo sapiens, UniProt O14684)
T1 sequence (O14684 1-152): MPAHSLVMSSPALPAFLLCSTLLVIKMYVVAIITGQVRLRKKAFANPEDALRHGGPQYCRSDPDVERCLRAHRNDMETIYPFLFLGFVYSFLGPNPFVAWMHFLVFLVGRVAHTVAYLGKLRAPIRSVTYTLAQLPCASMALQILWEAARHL
Experiment: In-vitro mPGES-1 enzyme inhibition assay (PGE2 formation from PGH2, HTRF detection)
Type: biochemical
Details: for inhibition at 1 µM: 1 μM test compound, read-out: Percentage inhibition at 1 μM; for inhibition at 1 µM / inhibition at 10 µM: recombinant human mPGES-1 microsomal fraction; for inhibition at 10 µM: 10 μM test compound, read-out: Percentage inhibition at 10 μM; for IC50: class symbols, selected examples
How it was run: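 Crude microsomal fractions containing recombinant human mPGES-1 (40-60 μg/mL protein) convert PGH2 to PGE2 in the presence of reduced glutathione, with 0.5% final DMSO. Reaction stopped with stannous chloride, and PGE2 measured by anti-PGE2 antibody (HTRF) detection. IC50 by nonlinear regression of % inhibition versus uninhibited enzyme control.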

In the case of `CC1(C)Cc2c(c(C(=O)Nc3ncc(Cl)cc3F)cc3nc(Nc4c(Cl)cccc4Cl)[nH]c23)O1` [Example-205, N-(5-Chloro-3-fluoropyridin-2-yl)-2-((2,6-dichlorophenyl)amino)-7,7-dimethyl-7,8-dihydro-1H-benzofuro[4,5-d]imidazole-5-carboxamide], the inhibition at 1 µM is reported as 99.9%, the inhibition at 10 µM is reported as 100% and the IC50 is reported as less than 50 nM.

For `Cc1cccc(Cl)c1Nc1nc2cc(C(=O)Nc3ncc(Cl)cc3F)c3c(c2[nH]1)CC(C)(C)O3` [Example-204, N-(5-Chloro-3-fluoropyridin-2-yl)-2-((2-chloro-6-methylphenyl)amino)-7,7-dimethyl-7,8-dihydro-1H-benzofuro[4,5-d]imidazole-5-carboxamide], the inhibition at 1 µM was 98%, the inhibition at 10 µM was 100% and the IC50 was less than 50 nM.

`Cc1cc2c(o1)c(C(=O)NC1CCCCC1)cc1nc(Nc3c(Cl)cccc3Cl)[nH]c12` [Example-13, N-Cyclohexyl-2-[(2,6-dichlorophenyl)amino]-7-methyl-1H-furo[3,2-e]benzimidazole-5-carboxamide] showed an inhibition at 1 µM of 94.2% and an inhibition at 10 µM of 97.5%.

Work on `Cc1cc2c(o1)c(C(=O)Nc1ccc(Br)cn1)cc1nc(Nc3c(Cl)cccc3Cl)[nH]c12` [Example-71, N-(5-Bromopyridin-2-yl)-2-[(2,6-dichlorophenyl)amino]-7-methyl-1H-furo[3,2-e]benzimidazole-5-carboxamide] yielded an inhibition at 1 µM of 93.9%, an inhibition at 10 µM of 98.4% and an IC50 of less than 50 nM.

With `COCCCNC(=O)c1cc2nc(Nc3c(Cl)cccc3Cl)[nH]c2c2c1OC(C)(C)C2` [Example-69, 2-[(2,6-Dichlorophenyl)amino]-N-(3-methoxypropyl)-7,7-dimethyl-7,8-dihydro-1H-furo[3,2-e]benzimidazole-5-carboxamide] the inhibition at 1 µM was 86.2%, the inhibition at 10 µM was 98% and the IC50 was less than 50 nM.

`CC1(C)Cc2c(c(C(=O)NCc3ccc(F)cc3C(F)(F)F)cc3nc(Nc4c(F)cccc4Cl)[nH]c23)O1` [Example-129, 2-((2-Chloro-6-fluorophenyl)amino)-N-(4-fluoro-2-(trifluoromethyl)benzyl)-7,7-dimethyl-7,8-dihydro-1H-benzofuro[4,5-d]imidazole-5-carboxamide] showed an inhibition at 1 µM of 88.3%, an inhibition at 10 µM of 97.1% and an IC50 of less than 50 nM.

In the case of `Cn1c(Nc2c(F)cccc2Cl)nc2cc(C(=O)Nc3ccc(C(F)(F)F)cn3)c3c(c21)CC(C)(C)O3` [Example-157, 2-((2-Chloro-6-fluorophenyl)amino)-1,7,7-trimethyl-N-(5-(trifluoromethyl)pyridin-2-yl)-7,8-dihydro-1H-benzofuro[4,5-d]imidazole-5-carboxamide], the inhibition at 1 µM is reported as 98.9%, the inhibition at 10 µM is reported as 99.7% and the IC50 is reported as less than 50 nM.

`CC1(C)Cc2c(c(C(=O)Nc3cc(C4CC4)ccc3F)cc3nc(Nc4c(Cl)cccc4Cl)[nH]c23)O1` [Example-159, N-(5-Cyclopropyl-2-fluorophenyl)-2-((2,6-dichlorophenyl)amino)-7,7-dimethyl-7,8-dihydro-1H-benzofuro[4,5-d]imidazole-5-carboxamide] was tested, and the inhibition at 1 µM was 98.9%, the inhibition at 10 µM was 100% and the IC50 was less than 50 nM.

With `CC1(C)Cc2c(c(C(=O)Nc3ccc(F)cc3F)cc3nc(Nc4c(Cl)cncc4Cl)[nH]c23)O1` [Example-197, 2-((3,5-Dichloropyridin-4-yl)amino)-N-(2,4-difluorophenyl)-7,7-dimethyl-7,8-dihydro-1H-benzofuro[4,5-d]imidazole-5-carboxamide] the inhibition at 1 µM was 99.6%, the inhibition at 10 µM was 99.5% and the IC50 was less than 50 nM.

For `CC1CC2CC(C1NC(=O)c1cc3nc(Nc4c(Cl)cncc4Cl)[nH]c3c3c1OC(C)(C)C3)C2(C)C` (stereo not shown) [Example-17, 2-[(3,5-Dichloropyridin-4-yl)amino]-7,7-dimethyl-N-(3,6,6-trimethylbicyclo[3.1.1]hept-2-yl)-7,8-dihydro-1H-furo[3,2-e]benzimidazole-5-carboxamide], the inhibition at 1 µM was 98%, the inhibition at 10 µM was 96.1% and the IC50 was less than 50 nM.

`CC1(C)Cc2c(c(C(=O)Nc3ccc(Cl)cn3)cc3nc(Nc4c(F)cccc4Cl)[nH]c23)O1` [Example-121, 2-[(2-Chloro-6-fluorophenyl)amino]-N-(5-chloropyridin-2-yl)-7,7-dimethyl-7,8-dihydro-1H-furo[3,2-e]benzimidazole-5-carboxamide] gave an inhibition at 1 µM of 100% and an inhibition at 10 µM of 100%.

Work on `Cc1cccc(Cl)c1Nc1nc2cc(C(=O)Nc3c(F)cc(F)cc3F)c3c(c2[nH]1)CC(C)(C)O3` [Example-109, 2-[(2-Chloro-6-methylphenyl)amino]-7,7-dimethyl-N-(2,4,6-trifluorophenyl)-7,8-dihydro-1H-furo[3,2-e]benzimidazole-5-carboxamide] yielded an inhibition at 1 µM of 93.8%, an inhibition at 10 µM of 98.8% and an IC50 of 50 to 100 nM.

`CC1(C)Cc2c(c(C(=O)Nc3ccc(C(F)(F)F)nc3)cc3nc(Nc4c(F)cccc4Cl)[nH]c23)O1` [Example-191, 2-((2-Chloro-6-fluorophenyl)amino)-7,7-dimethyl-N-(6-(trifluoromethyl)pyridin-3-yl)-7,8-dihydro-1H-benzofuro[4,5-d]imidazole-5-carboxamide] gave an inhibition at 1 µM of 96.1%, an inhibition at 10 µM of 96.3% and an IC50 of less than 50 nM.

For `CC1(C)Cc2c(c(C(=O)NCc3ccc(F)cc3)cc3nc(Nc4c(Cl)cncc4Cl)[nH]c23)O1` [Example-26, 2-[(3,5-Dichloropyridin-4-yl)amino]-N-(4-fluorobenzyl)-7,7-dimethyl-7,8-dihydro-1H-furo[3,2-e]benzimidazole-5-carboxamide], the inhibition at 1 µM was 90.2%, the inhibition at 10 µM was 97.8% and the IC50 was less than 50 nM.

Work on `CC1(C)Cc2c(c(C(=O)Nc3ccc(Br)cc3)cc3nc(Nc4ccccc4Cl)[nH]c23)O1` [Example-78, N-(4-Bromophenyl)-2-[(2-chlorophenyl)amino]-7,7-dimethyl-7,8-dihydro-1H-furo[3,2-e]benzimidazole-5-carboxamide] yielded an inhibition at 1 µM of 88.5%, an inhibition at 10 µM of 96.4% and an IC50 of less than 50 nM.

Molecule `Cn1c(Nc2c(Cl)cncc2Cl)nc2cc(C(=O)Nc3ccc(C(F)(F)F)cn3)c3c(c21)CC(C)(C)O3` [Example-219, 2-((3,5-Dichloropyridin-4-yl)amino)-1,7,7-trimethyl-N-(5-(trifluoromethyl)pyridin-2-yl)-7,8-dihydro-1H-benzofuro[4,5-d]imidazole-5-carboxamide] has an inhibition at 1 µM of 97.8% and an inhibition at 10 µM of 98.5%.

For `CC1(C)Cc2c(c(C(=O)NCCc3ccc(Cl)cc3)cc3nc(Nc4c(Cl)cccc4Cl)[nH]c23)O1` [Example-83, N-[2-(4-Chlorophenyl)ethyl]-2-[(2,6-dichlorophenyl)amino]-7,7-dimethyl-7,8-dihydro-1H-furo[3,2-e]benzimidazole-5-carboxamide], the inhibition at 1 µM was 87.7%, the inhibition at 10 µM was 89.3% and the IC50 was less than 50 nM.

Work on `Cc1ccc(Nc2nc3cc(C(=O)Nc4ccccc4C(F)(F)F)c4c(c3[nH]2)CC(C)(C)O4)c(C)n1` [Example-106] yielded an inhibition at 1 µM of 9.35% and an inhibition at 10 µM of 46.2%.

With `Cc1cc2c(o1)c(C(=O)Nc1cccc(C(F)(F)F)c1)cc1nc(Nc3c(Cl)cccc3Cl)[nH]c12` [Example-68, 2-[(2,6-Dichlorophenyl)amino]-7-methyl-N-[3-(trifluoromethyl)phenyl]-1H-furo[3,2-e]benzimidazole-5-carboxamide] the inhibition at 1 µM was 97.6% and the inhibition at 10 µM was 98.5%.
